The text below walks through data of patent US8247579B2, “Spirocyclic tetronic acid derivatives” (Bayer Cropscience AG, priority 2007, dated 2012).

Series [1] is described as follows: Determination of the logP values by HPLC (EEC Directive 79/831 Annex V.A8). It counts as physicochemical. The following applies: reversed-phase C18 HPLC column, reversed-phase C18, 43° C., acidic range (pH 2.3). Here is the method:
Determination of the LogP Values The logP values given in the table were determined in accordance with EEC Directive 79/831 Annex V .A8 by HPLC (High Performance Liquid Chromatography) on a reversed-phase column (C18). Temperature: 43° C. Mobile phases for the determination in the acidic range (pH 2.3): 0.1% aqueous phosphoric acid, acetonitrile; linear gradient from 10% acetonitrile to 90% acetonitrile The calibration was carried out using unbranched alkan-2-ones (having 3 to 16 carbon atoms) with known logP values (determination of the logP values by the retention times using linear interpolation between two successive alkanones).

The subject of series [2] is mixed thrips population (Frankliniella occidentalis). Nature of the series: Frankliniella occidentalis (FRANOC spray treatment). It counts as in vivo. The conditions noted are these: bean leaf disks. Here is the method: Frankliniella occidentalis (FRANOC Spray Treatment)
If addition of ammonium salts is required, these are added by pipette in a concentration of 1000 ppm after dilution of the respective finished solution of the preparation.

Series [3] concerns larvae of the mustard beetle (Phaedon cochleariae). Nature of the series: Phaedon test (PHAECO spray treatment). The conditions noted are these: application rate of 100 g/ha, Chinese cabbage discs.
Series [4] relates to Tetranychus urticae, resistant. Nature of the series: Tetranychus urticae (TETRUR RAUS) spray test, resistant mites on bush bean plants. It counts as in vivo. The following applies: concentration of 5 ppm, spraying. Here is the method:
Tetranychus urticae (TETRUR RAUS)
Bush bean plants (Phaseolus vulgaris) infested with a mixed population of resistant greenhouse red spider mites (Tetranychus urticae, resistant) are treated by spraying with the active compound preparation of the desired concentration.
(§1) After the desired period of time, the kill in % is determined.

The subject of series [5] is greenhouse red spider mite (Tetranychus urticae sensitive). Nature of the series: Tetranychus test, OP-resistant/dip treatment (TETRUR). It counts as in vivo. The conditions noted are these: dip. On the procedure: Tetranychus Test, OP-Resistant/Dip Treatment (TETRUR)
(§2) If addition of ammonium salts, penetrants or ammonium salts and penetrants is required, these are added by pipette in a concentration of 1000 ppm after dilution of the respective finished solution of the preparation.

Series [6] deals with Green peach aphid (Myzus persicae). Nature of the series: Myzus persicae test (MYZUPE), dip treatment of cabbage leaves. It counts as in vivo. The conditions noted are these: 100 ppm. On the procedure:
Myzus persicae Test (MYZUPE)
as §2
Cabbage leaves (Brassica oleracea) which are heavily infested by the Green peach aphid (Myzus persicae) are treated by being dipped into the active compound preparation of the desired concentration.
as §1

Structures are written as SMILES.

As usually defined, the chromatographic logP is lipophilicity estimated from chromatographic retention. A higher chromatographic logP goes with higher lipophilicity. Take `Cc1cc(C)c(C2=C(OC(=O)CC34CC5CC(CC(C5)C3)C4)C3(CCCC3)OC2=O)c(C)c1` [Example I-1]: the chromatographic logP in series [1] amounted to 6.94. In addition, the “effect in % (thrips killed)” value in series [2] (application rate of 500 g/ha) came to 80%.

On to `Cc1cc(C)c(C2=C(OC(=O)CC3(C)OCCO3)C3(CCCC3)OC2=O)c(C)c1` [Example I-2], for which, in series [1], the chromatographic logP amounted to 3.85. Also, in series [3], the “effect in % (beetle larvae killed)” value is reported as 67%. Further, the “effect in % (thrips killed)” value in series [2] (application rate of 100 g/ha) is recorded as 63%.

In series [4], `CCC(C)(C)CC(=O)OC1=C(c2c(C)cc(C)cc2C)C(=O)OC12CCCC2` [Example I-3] showed a kill in % of 97%.

`COC(C)(C)CC(=O)OC1=C(c2c(C)cc(C)cc2C)C(=O)OC12CCCC2` [Example I-5]: the “TETRUR % 7 d (effect in %)” value in series [5] (0.78125 ppm) is listed as 30%; in series [5] (1.5625 ppm), 50%; in series [5] (3.125 ppm) it was 90%. This compound also displayed a chromatographic logP in series [1] of 4.45. In series [6], the “MYZUPE % 6 d (kill in %)” value is recorded as 55%.

On to `Cc1cc(C)c(C2=C(OC(=O)CC(C)(C)C)C3(CCCC3)OC2=O)c(C)c1` [spiromesifen, reference compound], for which the “TETRUR % 7 d (effect in %)” value in series [5] (0.78125 ppm) was found to be 0%; in series [5] (1.5625 ppm), 30%; in series [5] (3.125 ppm), 50%. Moreover, the “MYZUPE % 6 d (kill in %)” value in series [6] amounted to 30%. Further, the “effect in % (beetle larvae killed)” value in series [3] turned out to be 33%. In series [4], this compound displayed a kill in % of 30%. For the same compound, the “effect in % (thrips killed)” value in series [2] (application rate of 100 g/ha) and in series [2] (application rate of 500 g/ha) was 0% throughout.
